Experimental data from ChEMBL document CHEMBL4828709, “Discovery of 2,4-pyrimidinediamine derivatives as potent dual inhibitors of ALK and HDAC” (Eur J Med Chem, 2021).
pIC50: −log10 of the molar value. Active and inactive are the calls of the source. No cut-off for these calls is given here.

Tests used:
MDA-MB-231 [1] = assay: Cell cycle arrest in human MDA-MB-231 cells assessed as accumulation of cells at G2 phase at 2 uM measured after 24 hrs by PI staining based flowcytometry method (reference value: 23.89%); assay type: functional
[2] = Potency index, ratio of crizotinib IC50 to test compound IC50 for human SKNBE2 cells harboring wild type ALK assessed as inhibition of cell proliferation measured after 72 hrs by CCK8 assay; assay type: functional
SH-SY5Y [3] = assay: Antimigratory activity against human SH-SY5Y cells assessed as wound closure at 0.4 uM measured after 48 hrs by cell scratch assay (reference value: 15.1%); assay type: functional
[4] = target: ALK tyrosine kinase receptor (Homo sapiens, UniProt Q9UM73, G1202R)
Sequence of ALK tyrosine kinase receptor (Homo sapiens, UniProt Q9UM73, G1202R) (Q9UM73 19-1620 G1202R limits assumed): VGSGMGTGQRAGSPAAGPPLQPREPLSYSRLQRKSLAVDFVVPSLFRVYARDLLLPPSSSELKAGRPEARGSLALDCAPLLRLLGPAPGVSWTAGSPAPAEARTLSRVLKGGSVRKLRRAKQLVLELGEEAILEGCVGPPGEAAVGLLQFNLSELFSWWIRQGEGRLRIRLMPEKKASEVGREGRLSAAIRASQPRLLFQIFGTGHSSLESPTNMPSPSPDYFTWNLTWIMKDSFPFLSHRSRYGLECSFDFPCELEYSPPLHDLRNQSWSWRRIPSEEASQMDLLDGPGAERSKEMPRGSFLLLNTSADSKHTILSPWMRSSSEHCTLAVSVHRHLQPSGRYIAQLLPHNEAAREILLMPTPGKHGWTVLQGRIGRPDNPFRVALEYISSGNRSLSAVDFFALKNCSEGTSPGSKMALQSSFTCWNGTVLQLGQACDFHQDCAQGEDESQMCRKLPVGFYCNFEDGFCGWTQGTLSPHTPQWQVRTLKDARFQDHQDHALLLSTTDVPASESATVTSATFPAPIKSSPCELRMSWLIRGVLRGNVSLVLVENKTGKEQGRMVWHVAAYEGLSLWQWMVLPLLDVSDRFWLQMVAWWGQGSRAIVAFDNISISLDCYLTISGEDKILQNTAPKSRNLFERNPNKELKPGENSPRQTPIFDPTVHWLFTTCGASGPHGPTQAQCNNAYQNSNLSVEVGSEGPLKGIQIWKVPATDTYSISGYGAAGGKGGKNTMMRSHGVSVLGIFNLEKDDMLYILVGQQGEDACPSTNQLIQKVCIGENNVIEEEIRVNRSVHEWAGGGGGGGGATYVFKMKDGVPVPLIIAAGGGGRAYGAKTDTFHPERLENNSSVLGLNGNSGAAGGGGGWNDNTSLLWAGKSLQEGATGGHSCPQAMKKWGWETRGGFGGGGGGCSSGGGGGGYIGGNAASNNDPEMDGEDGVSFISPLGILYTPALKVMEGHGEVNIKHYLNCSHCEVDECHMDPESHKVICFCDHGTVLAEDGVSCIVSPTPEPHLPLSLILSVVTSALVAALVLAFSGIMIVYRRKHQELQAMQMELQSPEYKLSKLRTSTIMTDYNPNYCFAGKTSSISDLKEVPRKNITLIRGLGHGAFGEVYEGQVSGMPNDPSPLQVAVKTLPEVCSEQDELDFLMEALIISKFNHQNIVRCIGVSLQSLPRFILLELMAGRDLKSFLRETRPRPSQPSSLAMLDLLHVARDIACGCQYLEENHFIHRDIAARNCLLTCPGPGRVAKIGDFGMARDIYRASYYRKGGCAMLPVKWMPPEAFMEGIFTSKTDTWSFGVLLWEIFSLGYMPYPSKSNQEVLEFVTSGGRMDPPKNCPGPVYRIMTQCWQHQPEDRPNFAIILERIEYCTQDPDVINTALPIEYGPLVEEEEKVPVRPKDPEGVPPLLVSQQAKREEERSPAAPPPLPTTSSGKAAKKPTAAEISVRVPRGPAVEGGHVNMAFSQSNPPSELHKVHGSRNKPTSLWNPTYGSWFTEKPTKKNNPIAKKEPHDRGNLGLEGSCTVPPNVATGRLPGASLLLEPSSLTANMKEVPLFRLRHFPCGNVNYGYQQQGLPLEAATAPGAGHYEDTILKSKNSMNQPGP

MDA-MB-231 [5] = assay: Cell cycle arrest in human MDA-MB-231 cells assessed as accumulation of cells at S phase at 1 uM measured after 24 hrs by PI staining based flowcytometry method (reference value: 20.81%); assay type: functional
[6] = tested on: ALK tyrosine kinase receptor (Homo sapiens), Q9UM73 [G1202R]; assay: Potency index, ratio of repotrectinib IC50 to test compound IC50 for inhibition of ALK G1202R mutant (unknown origin)
Sequence of ALK tyrosine kinase receptor (Homo sapiens), Q9UM73 [G1202R] (Q9UM73 whole entry G1202R): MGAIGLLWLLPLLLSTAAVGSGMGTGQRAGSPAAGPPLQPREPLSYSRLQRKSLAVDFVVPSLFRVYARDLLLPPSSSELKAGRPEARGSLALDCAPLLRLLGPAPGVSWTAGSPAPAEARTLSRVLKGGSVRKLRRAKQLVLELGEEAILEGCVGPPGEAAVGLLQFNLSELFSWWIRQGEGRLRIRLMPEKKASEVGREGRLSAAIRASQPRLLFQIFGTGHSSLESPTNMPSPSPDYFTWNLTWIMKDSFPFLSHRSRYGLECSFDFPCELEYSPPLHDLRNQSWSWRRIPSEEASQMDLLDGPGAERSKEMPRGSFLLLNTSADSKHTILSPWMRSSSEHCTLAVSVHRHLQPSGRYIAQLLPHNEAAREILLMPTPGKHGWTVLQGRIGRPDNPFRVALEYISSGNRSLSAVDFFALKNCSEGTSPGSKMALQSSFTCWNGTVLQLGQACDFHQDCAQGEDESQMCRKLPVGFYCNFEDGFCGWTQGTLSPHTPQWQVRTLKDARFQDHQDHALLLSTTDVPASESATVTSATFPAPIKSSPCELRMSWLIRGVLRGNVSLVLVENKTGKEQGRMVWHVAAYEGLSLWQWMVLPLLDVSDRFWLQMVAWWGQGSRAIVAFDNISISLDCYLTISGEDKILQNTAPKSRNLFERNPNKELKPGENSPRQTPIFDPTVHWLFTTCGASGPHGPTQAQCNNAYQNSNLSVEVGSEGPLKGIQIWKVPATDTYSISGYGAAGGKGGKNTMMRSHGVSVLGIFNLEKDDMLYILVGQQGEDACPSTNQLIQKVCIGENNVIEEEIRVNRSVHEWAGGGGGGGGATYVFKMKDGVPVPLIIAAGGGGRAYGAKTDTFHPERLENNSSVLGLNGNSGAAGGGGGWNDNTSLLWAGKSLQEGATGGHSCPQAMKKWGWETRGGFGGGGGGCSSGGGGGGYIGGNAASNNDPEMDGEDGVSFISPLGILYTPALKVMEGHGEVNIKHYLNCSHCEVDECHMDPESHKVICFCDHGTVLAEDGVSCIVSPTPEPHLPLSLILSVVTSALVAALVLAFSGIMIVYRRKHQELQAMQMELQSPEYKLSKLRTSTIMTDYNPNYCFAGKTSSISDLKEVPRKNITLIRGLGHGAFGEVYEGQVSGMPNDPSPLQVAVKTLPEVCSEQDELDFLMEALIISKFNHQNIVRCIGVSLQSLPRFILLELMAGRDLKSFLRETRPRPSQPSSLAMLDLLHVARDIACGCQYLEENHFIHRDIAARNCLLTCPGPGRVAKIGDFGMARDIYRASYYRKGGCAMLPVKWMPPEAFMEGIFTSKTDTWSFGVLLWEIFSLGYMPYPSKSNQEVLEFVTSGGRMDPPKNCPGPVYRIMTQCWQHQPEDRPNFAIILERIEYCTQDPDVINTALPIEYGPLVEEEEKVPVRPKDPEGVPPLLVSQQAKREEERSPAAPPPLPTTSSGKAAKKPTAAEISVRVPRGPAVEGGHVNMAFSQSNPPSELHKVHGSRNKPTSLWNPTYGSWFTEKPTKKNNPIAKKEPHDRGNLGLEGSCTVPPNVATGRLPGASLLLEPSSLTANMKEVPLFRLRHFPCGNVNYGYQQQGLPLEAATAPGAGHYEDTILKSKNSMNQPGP

[7] = target: T1, ALK tyrosine kinase receptor (Homo sapiens, UniProt Q9UM73); assay: Inhibition of ALK in human MDA-MB-231 cells assessed as inhibition of ALK phosphorylation at Tyr1278 residue measured after 24 hrs by Western blot assay; assay type: cell-based; conditions: dose 1-4 µM
T1 sequence (Q9UM73 19-1620 limits assumed): as the sequence (Q9UM73 19-1620 G1202R limits assumed) above, with R1184G counted along it

MDA-MB-231 [8] = assay: Induction of apoptosis in human MDA-MB-231 cells assessed as increase in blue fluorescence intensity at 1 to 4 uM measured after 24 hrs by Hoechst33258 staining based fluorescence microscopy; assay type: functional, cell-based; conditions: dose 1-4 µM
Histone deacetylase 1 = Histone deacetylase 1 (Homo sapiens, UniProt Q13547); assay: biochemical
Sequence of Histone deacetylase 1 (Q13547 whole entry): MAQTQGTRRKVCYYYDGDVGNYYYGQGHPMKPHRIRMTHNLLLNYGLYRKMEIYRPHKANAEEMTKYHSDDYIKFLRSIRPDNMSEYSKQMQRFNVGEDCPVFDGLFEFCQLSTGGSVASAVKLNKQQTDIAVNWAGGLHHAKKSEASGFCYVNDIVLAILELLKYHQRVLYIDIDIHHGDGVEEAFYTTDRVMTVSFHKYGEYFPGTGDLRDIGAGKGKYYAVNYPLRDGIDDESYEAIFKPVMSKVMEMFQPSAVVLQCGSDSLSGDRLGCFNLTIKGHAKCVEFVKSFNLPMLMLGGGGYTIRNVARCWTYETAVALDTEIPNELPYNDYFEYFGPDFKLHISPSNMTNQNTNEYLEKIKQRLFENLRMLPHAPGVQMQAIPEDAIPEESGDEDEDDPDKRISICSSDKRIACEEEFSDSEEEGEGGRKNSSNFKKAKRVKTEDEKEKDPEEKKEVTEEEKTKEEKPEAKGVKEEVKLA
Description: Inhibition of recombinant human C-terminal His/FLAG-tagged HDAC1 (1 to 482 residues) expressed in Sf9 insect cells using Ac-peptide-AMC as substrate preincubated for 15 mins followed by addition of substrate and trypsin measured by flourescence assay

MDA-MB-231 [9] = assay: Induction of apoptosis in human MDA-MB-231 cells assessed as necrotic cells at 4 uM measured after 24 hrs by Annexin V-FITC/PI staining based flowcytometry (reference value: 0.98%); assay type: functional
[10] = target: T1, ALK tyrosine kinase receptor; assay: Inhibition of human ALK at 1 uM
MDA-MB-231 [11] = assay: Induction of apoptosis in human MDA-MB-231 cells assessed as early apoptotic cells at 1 uM measured after 24 hrs by Annexin V-FITC/PI staining based flowcytometry ( Rvb = […]%); assay type: functional
[12] = Volume of distribution at steady state in Sprague-Dawley rat at 1 mg/kg, iv measured for 12 hrs by LC-MS/MS analysis; assay type: ADME, organism-based; conditions: in vivo
MDA-MB-231 [13] = assay: Cell cycle arrest in human MDA-MB-231 cells assessed as accumulation of cells at G2 phase at 4 uM measured after 24 hrs by PI staining based flowcytometry method (reference value: 23.89%); assay type: functional
[14] = target: T1, ALK tyrosine kinase receptor; assay: Inhibition of human ALK in human SH-SY5Y cells assessed as inhibition of Akt phosphorylation at Ser473 residue measured after 24 hrs by Western blot assay; assay type: cell-based; conditions: dose 1-4 µM
A549 [15] = assay: Potency index, ratio of ceritinib IC50 to test compound IC50 for human A549 cells assessed as inhibition of cell proliferation measured after 72 hrs by CCK8 assay; assay type: functional
[16] = target: T1, ALK tyrosine kinase receptor; assay: Inhibition of human ALK in human SH-SY5Y cells assessed as inhibition of ERK phosphorylation at Thr202/Tyr204 residue measured after 24 hrs by Western blot assay; assay type: cell-based; conditions: dose 1-4 µM
SH-SY5Y [17] = assay: Induction of apoptosis in human SH-SY5Y cells assessed as early apoptotic cells at 2 uM measured after 24 hrs by Annexin V-FITC/PI staining based flowcytometry (reference value: 0.82%); assay type: functional
MDA-MB-231 [18] = assay: Induction of apoptosis in human MDA-MB-231 cells assessed as necrotic cells at 1 uM measured after 24 hrs by Annexin V-FITC/PI staining based flowcytometry (reference value: 0.94%); assay type: functional
SH-SY5Y [19] = assay: Cell cycle arrest in human SH-SY5Y cells assessed as accumulation of cells at S phase at 4 uM measured after 24 hrs by PI staining based flowcytometry method (reference value: 27.69%); assay type: functional
MDA-MB-231 [20] = assay: Cell cycle arrest in human MDA-MB-231 cells assessed as accumulation of cells at G2 phase at 1 uM measured after 24 hrs by PI staining based flowcytometry method (reference value: 23.89%); assay type: functional
SH-SY5Y [21] = assay: Cell cycle arrest in human SH-SY5Y cells assessed as accumulation of cells at G2 phase at 4 uM measured after 24 hrs by PI staining based flowcytometry method (reference value: 13.23%); assay type: functional
A549 [22] = assay: cells; assay type: functional, cell-based; conditions: Homo sapiens, A549, 72 h
Description: Antiproliferative activity against human A549 cells assessed as inhibition of cell proliferation measured after 72 hrs by CCK8 assay

SH-SY5Y [23] = assay: Cell cycle arrest in human SH-SY5Y cells assessed as accumulation of cells at S phase at 1 uM measured after 24 hrs by PI staining based flowcytometry method (reference value: 27.69%); assay type: functional
HepG2 = assay: cells; assay type: functional, cell-based; conditions: Homo sapiens, HepG2, 72 h
Description: Antiproliferative activity against human HepG2 cells assessed as inhibition of cell proliferation measured after 72 hrs by CCK8 assay

MDA-MB-231 [24] = assay: cells; assay type: functional, cell-based; conditions: Homo sapiens, MDA-MB-231, 72 h
Description: Antiproliferative activity against human MDA-MB-231 cells assessed as inhibition of cell proliferation measured after 72 hrs by CCK8 assay

[25] = target: T1, ALK tyrosine kinase receptor; assay: Inhibition of ALK in human MDA-MB-231 cells assessed as inhibition of ALK phosphorylation at Tyr1278 residue at 4 uM measured after 24 hrs by Western blot assay; assay type: cell-based
SH-SY5Y [26] = assay: Induction of apoptosis in human SH-SY5Y cells assessed as late apoptotic cells at 1 uM measured after 24 hrs by Annexin V-FITC/PI staining based flowcytometry (reference value: 14.32%); assay type: functional
SH-SY5Y [27] = assay: Induction of apoptosis in human SH-SY5Y cells assessed as late apoptotic cells at 4 uM measured after 24 hrs by Annexin V-FITC/PI staining based flowcytometry (reference value: 14.32%); assay type: functional
SH-SY5Y [28] = assay: Induction of apoptosis in human SH-SY5Y cells assessed as viable cells at 2 uM measured after 24 hrs by Annexin V-FITC/PI staining based flowcytometry (reference value: 77.05%); assay type: functional; conditions: read-out: Activity
A549 [29] = assay: Potency index, ratio of crizotinib IC50 to test compound IC50 for human A549 cells assessed as inhibition of cell proliferation measured after 72 hrs by CCK8 assay; assay type: functional
SH-SY5Y [30] = assay: Cell cycle arrest in human SH-SY5Y cells assessed as accumulation of cells at G2 phase at 1 uM measured after 24 hrs by PI staining based flowcytometry method (reference value: 13.23%); assay type: functional
[31] = target: ALK tyrosine kinase receptor (Homo sapiens, UniProt Q9UM73, L1196M)
Sequence of ALK tyrosine kinase receptor (Homo sapiens, UniProt Q9UM73, L1196M) (Q9UM73 19-1620 L1196M limits assumed): as the sequence (Q9UM73 19-1620 G1202R limits assumed) above, with L1178M, R1184G counted along it

Histone deacetylase 2 = Histone deacetylase 2 (Homo sapiens, UniProt Q92769)
Sequence of Histone deacetylase 2 (Q92769 whole entry): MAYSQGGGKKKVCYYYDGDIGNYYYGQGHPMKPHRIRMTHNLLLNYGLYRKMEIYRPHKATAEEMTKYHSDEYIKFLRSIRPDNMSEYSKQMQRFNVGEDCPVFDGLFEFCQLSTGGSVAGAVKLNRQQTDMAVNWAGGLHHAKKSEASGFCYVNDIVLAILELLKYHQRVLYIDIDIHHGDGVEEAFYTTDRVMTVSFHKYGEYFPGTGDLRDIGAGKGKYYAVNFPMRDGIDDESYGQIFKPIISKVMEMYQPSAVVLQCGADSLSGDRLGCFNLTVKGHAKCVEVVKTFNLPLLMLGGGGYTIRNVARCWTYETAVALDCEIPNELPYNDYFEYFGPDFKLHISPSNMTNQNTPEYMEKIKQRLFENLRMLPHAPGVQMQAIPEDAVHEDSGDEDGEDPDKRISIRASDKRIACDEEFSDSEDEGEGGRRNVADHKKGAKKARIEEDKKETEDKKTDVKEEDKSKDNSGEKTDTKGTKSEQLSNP
Description: Inhibition of HDAC2 (unknown origin)

SH-SY5Y [32] = assay: Induction of apoptosis in human SH-SY5Y cells assessed as necrotic cells at 2 uM measured after 24 hrs by Annexin V-FITC/PI staining based flowcytometry (reference value: 7.81%); assay type: functional
[33] = target: T1, ALK tyrosine kinase receptor; assay: Inhibition of human ALK in human SH-SY5Y cells assessed as inhibition of ALK phosphorylation at Tyr1278 residue at 4 uM measured after 24 hrs by Western blot assay; assay type: cell-based

CC(C)S(=O)(=O)c1ccccc1Nc1nc(Nc2ccc(NC(=O)CCCCCCC(=O)NO)cc2)ncc1Cl
Activity (MDA-MB-231 [1]): 49.05% | Ratio IC50 [2]: 3 | Activity (SH-SY5Y [3]): 2.8% | pIC50 [4]: 9.40 | Activity (MDA-MB-231 [5]): 32.42% | Ratio IC50 [6]: 10 | inhibition [7]: Dose-Dependent Effect | Activity (MDA-MB-231 [8]): Active | pIC50 (Histone deacetylase 1): 8.10 | Activity (MDA-MB-231 [9]): 3.86% | inhibition [10]: Active | Activity (MDA-MB-231 [11]): 1.96% | Vdss [12]: 3.3 L/kg | Activity (MDA-MB-231 [13]): 50.99% | inhibition [14]: Dose-Dependent Effect | Ratio IC50 (A549 [15]): 3 | inhibition [16]: Dose-Dependent Effect | Activity (SH-SY5Y [17]): 4.02% | Activity (MDA-MB-231 [18]): 1.36% | Activity (SH-SY5Y [19]): 7.55% | Activity (MDA-MB-231 [20]): 32.53% | Activity (SH-SY5Y [21]): 88.07% | pIC50 (A549 [22]): 6.34 | Activity (SH-SY5Y [23]): 18.33% | pIC50 (HepG2): 6.19 | pIC50 (MDA-MB-231 [24]): 6.34 | inhibition [25]: Active | Activity (SH-SY5Y [26]): 21.05% | Activity (SH-SY5Y [27]): 45.5% | viability at 2 µM (SH-SY5Y [28]): 58.6% | Ratio IC50 (A549 [29]): 3 | Activity (SH-SY5Y [30]): 48.7% | pIC50 [31]: 8.77 | pIC50 (Histone deacetylase 2): 8.03 | Activity (SH-SY5Y [32]): 10.51% | inhibition [33]: Active
